# Source: US12391680B2, “Compounds and compositions for the treatment of cystic fibrosis” (FONDAZIONE ISTITUTO ITALIANO DI TECNOLOGIA, priority 2019, dated 2025)
# Columns and labels:
# Assay type in all cases: cell-based
# mutant CFTR = mutant CFTR (Homo sapiens, UniProt P13569); assay: Fluorescence assay for CFTR activity (halide-sensitive YFP, HS-YFP); conditions: CFBE41o- and FRT cells with stable expression of mutant CFTR
# Protocol: Mutant CFTR activity was determined with the functional assay based on the halide-sensitive yellow fluorescent protein, HS—YFP (Galietta et al., FEBS Lett 499:220-224, 2001). CFBE41o- and FRT cells with stable expression of mutant CFTR and HS—YFP were plated on clear-bottom 96-well black microplates (Code 3603, Corning Life Sciences) at a density of 50,000 cells/well and kept at 37° C. in 5% CO2 for 24 hours.
# For the corrector assay, cells were treated for further 24 hours with test compounds, vehicle (DMSO), or the positive control VX-809. After treatment, the culture medium was removed and cells in each well were stimulated for 30 min at 37° C. with 60 μL PBS (containing 137 mM NaCl, 2.7 mM KCl, 8.1 mM Na2HPO4, 1.5 mM KH2PO4, 1 mM CaCl2, and 0.5 mM MgCl2) plus forskolin (20 μM) and genistein (50 μM).
# For determination of potentiator activity on F508del-CFTR, cells were incubated for 24 hours at 27° C. to allow trafficking of the mutant protein to plasma membrane. Cells were then stimulated with for 30 min with PBS containing forskolin (20 μM) plus the compound to be tested at the desired concentration. For determination of potentiator activity on G551D-CFTR or G1349D-CFTR, cells were directly stimulated with forskolin plus test compound without previous incubation at low temperature. At the time of assay, microplates carrying CFBE41o- or FRT cells were transferred to microplate readers (BMG Labtech) equipped with high-quality excitation (HQ500/20×: 500±10 nm) and emission (HQ535/30M: 535±15 nm) filters for YFP (Chroma Technology). The assay consisted of a continuous 14 s fluorescence reading with 2 s before and 12 s after injection of an iodide-containing solution (165 μL of a modified PBS containing I^− instead of Cl^−; final I^− concentration in the well: 100 mM). Data were normalized to the initial background-subtracted fluorescence. Enhanced CFTR activity, induced by correctors and/or potentiators, results in accelerated I^− influx that in turn causes faster HS—YFP quenching (Pedemonte et al., Mol Pharmacol 68:1736-1746, 2005; Pedemonte et al., J Clin Invest 115:2564-2571, […]). To determine fluorescence quenching rate associated with I^− influx, the final 10 s of data for each well were fitted with an exponential function to extrapolate initial slope (dF/dt).
# EC50 obtained are illustrated in Table 1 wherein+: EC50>2 μM; ++: 1.0 μM <EC50<2 μM; +++: EC50<1 μM.
# F508del-CFTR [1] = target: T1, F508del-CFTR (Homo sapiens, UniProt P13569, DEL508-508); assay: Short-circuit current recordings on human bronchial epithelial cells from CF patients (F508del/F508del); set-up: Human bronchial epithelial (HBE) cells obtained from CF patients (F508del/F508del genotype); endogenous in cells; host or cells: primary human bronchial epithelial cells from CF patients, F508del/F508del; conditions: HBE cells F508del/F508del, 24 hrs treatment, CPT-cAMP plus VX-770 minus CFTRinh-172
# Protocol: Human bronchial epithelial (HBE) cells obtained from CF patients (F508del/F508del genotype) were plated on Snapwell inserts (Code 3801, Corning Life Sciences) at a density of 500,000 cells per insert. Cells were cultured for two weeks in a differentiating medium whose compositions has been previously described (Scudieri et al., J Physiol 590:6141-6155, 2012). For the first week, the medium was kept on both apical and basolateral sides of inserts (submerged condition). For the second week, the apical medium was removed (air-liquid condition, ALC). To test the activity of correctors, cells were treated for 24 hrs with compounds dissolved in the basolateral medium. After treatment, Snapwell inserts carrying differentiated bronchial epithelia were mounted in a vertical chamber resembling an Ussing system with internal fluid circulation. Both apical and basolateral hemichambers were filled with 5 mL of a Krebs bicarbonate solution containing (in mM): 126 NaCl, 0.38 KH2PO4, 2.13 K2HPO4, 1 MgSO4, 1 CaCl2, 24 NaHCO3, and 10 glucose. Both sides were continuously bubbled with a gas mixture containing 5% CO2-95% air and the temperature of the solution was kept at 37° C. The transepithelial voltage was short-circuited with a voltage-clamp (DVC-1000, World Precision Instruments) connected to the apical and basolateral chambers via Ag/AgCl electrodes and agar bridges (1 M KCl in 1% agar). The offset between voltage electrodes and the fluid resistance were canceled before experiments. The short-circuit current was recorded with a PowerLab 4/25 (ADInstruments) analogical to digital converter connected to a Macintosh computer. […] The difference between the current measured with CPT-cAMP plus potentiator and the current remaining after CFTRinh-172 treatment (ΔICFTR) was taken as the parameter reflecting F508del-CFTR expression in the apical membrane.
# Activities of selected compounds on HBE cells (expressed as ΔICFTR) are illustrated in Table 3 wherein+: ΔICFTR<2.0 μA; ++: 2.0 μA<ΔICFTR<3.0 μA; +++: ΔICFTR >3.0 μA.
# F508del-CFTR [2] = target: T1, F508del-CFTR; assay: Transepithelial electrical conductance (TEEC) in FRT cells expressing F508del-CFTR; set-up: expressed in transfected cells; host or cells: FRT cells; conditions: tested at 5.0 μM, 24 hrs incubation
# Protocol: FRT cells expressing F508del-CFTR were plated on HTS Transwell-24 well permeable supports (Code 3379, Corning Life Sciences) at a density of 200,000 cells/well. After six days, cells were incubated for 24 hrs with test correctors, vehicle, or VX-809. Compounds were dissolved in both basolateral (800 μL) and apical (300 μL) culture medium. After treatment, the culture medium was removed and replaced on both sides with a saline solution containing (in mM): 130 NaCl, 2.7 KCl, 1.5 KH2PO4, 1 CaCl2, 0.5 MgCl2, 10 glucose, 10 Na-Hepes (pH 7.4). The basolateral and apical side received 800 μL and 100 μL, respectively. The 24-well tray with cells was placed on a block heater (SBH 130D, Stuart) to keep the temperature at 37° C. during the entire experiment. After 10 min, the basal transepithelial electrical resistance (TEER) across each layer of FRT cells was measured with a STX100C electrode pair connected to an EVOM2 voltohmeter (World Precision Instruments). To stimulate F508del-CFTR, each well received (apical side) 50 μL of saline solution containing 60 μM forskolin and 150 μM genistein (final concentrations: 20 μM forskolin, 50 μM genistein). Forskolin was also pipetted in the basolateral medium to obtain the 20 μM concentration. After 10 min TEER was measured again in each well. To block F508del-CFTR function, the inhibitor PPQ-102 was used at the final concentration of 30 μM. To achieve the desired concentration, 75 μL of the apical solution in each well was replaced with an equal volume of saline solution containing 20 μM forskolin, 50 μM genistein, and 60 μM PPQ-102. After further 10 min, the transepithelial electrical resistance was measured. All values of TEER were converted to transepithelial electrical conductance (TEEC) using the formula TEEC=1/TEER. The parameter to indicate activity of F508del-CFTR in each well (ATEEC) was calculated from the difference in TEEC measured after maximal stimulation of F508del-CFTR with forskolin and genistein and after block with PPQ-102.
# Corrector activities obtained on selected compounds tested at 5.0 μM (expressed as ΔTEEC values) are illustrated in Table 2, wherein+: ΔTEEC<2000 μS; ++: 2000 μS <ΔTEEC<3000ρS; +++: ΔTEEC>3000 μS.
# Chain of mutant CFTR (P13569 with tags, fused parts or gaps DEL508-508): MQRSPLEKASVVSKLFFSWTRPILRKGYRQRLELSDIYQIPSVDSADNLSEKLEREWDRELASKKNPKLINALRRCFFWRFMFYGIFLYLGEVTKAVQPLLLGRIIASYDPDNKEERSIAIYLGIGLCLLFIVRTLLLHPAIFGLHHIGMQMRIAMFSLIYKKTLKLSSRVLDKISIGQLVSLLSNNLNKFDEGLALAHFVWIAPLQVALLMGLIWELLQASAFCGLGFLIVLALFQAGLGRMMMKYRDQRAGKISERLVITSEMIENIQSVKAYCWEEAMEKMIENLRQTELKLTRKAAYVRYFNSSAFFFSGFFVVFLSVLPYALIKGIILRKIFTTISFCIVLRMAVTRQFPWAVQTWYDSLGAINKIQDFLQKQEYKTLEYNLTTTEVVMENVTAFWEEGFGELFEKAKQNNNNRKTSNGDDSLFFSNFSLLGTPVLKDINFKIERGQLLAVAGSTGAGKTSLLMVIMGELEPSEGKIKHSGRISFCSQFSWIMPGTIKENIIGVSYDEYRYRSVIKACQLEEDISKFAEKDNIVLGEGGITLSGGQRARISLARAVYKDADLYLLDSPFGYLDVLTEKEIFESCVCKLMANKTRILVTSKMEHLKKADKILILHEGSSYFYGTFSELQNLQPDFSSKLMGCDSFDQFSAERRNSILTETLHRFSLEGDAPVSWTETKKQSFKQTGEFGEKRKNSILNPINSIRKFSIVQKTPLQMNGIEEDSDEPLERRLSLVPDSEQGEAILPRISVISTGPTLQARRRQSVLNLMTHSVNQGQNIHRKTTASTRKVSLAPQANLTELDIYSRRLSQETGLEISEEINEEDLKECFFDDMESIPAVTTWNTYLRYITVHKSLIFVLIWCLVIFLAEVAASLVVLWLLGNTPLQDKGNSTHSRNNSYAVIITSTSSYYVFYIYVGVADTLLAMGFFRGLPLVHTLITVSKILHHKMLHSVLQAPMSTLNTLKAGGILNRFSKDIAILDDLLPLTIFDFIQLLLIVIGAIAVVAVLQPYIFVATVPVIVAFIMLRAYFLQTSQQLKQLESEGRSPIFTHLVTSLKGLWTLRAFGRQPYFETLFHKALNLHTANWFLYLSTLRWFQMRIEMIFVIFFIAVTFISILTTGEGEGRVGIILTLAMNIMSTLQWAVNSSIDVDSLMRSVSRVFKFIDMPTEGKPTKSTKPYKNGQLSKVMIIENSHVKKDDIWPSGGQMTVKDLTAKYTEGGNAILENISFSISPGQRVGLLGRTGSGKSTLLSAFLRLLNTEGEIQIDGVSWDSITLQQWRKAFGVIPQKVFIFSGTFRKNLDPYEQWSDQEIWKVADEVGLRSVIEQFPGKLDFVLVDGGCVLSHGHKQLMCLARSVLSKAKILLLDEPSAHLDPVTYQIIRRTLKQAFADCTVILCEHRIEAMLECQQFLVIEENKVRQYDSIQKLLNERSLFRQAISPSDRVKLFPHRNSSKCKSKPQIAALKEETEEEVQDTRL
# T1 sequence (P13569 with tags, fused parts or gaps DEL508-508): as above
Structure (SMILES),EC50 (mutant CFTR) [µM],activity (ΔICFTR) (F508del-CFTR [1]),activity (corrector activity expressed as ΔTEEC) (F508del-CFTR [2])
"NC(=O)c1sc2ccccc2c1C1CN(S(=O)(=O)c2ccc3c(c2)OCCO3)CCO1 (racemic) [compound 018, rac-3-[(4-(2,3-dihydro-1,4-benzodioxin-6-ylsulfonyl)morpholin-2-yl]benzothiophene-2-carboxamide]",< 1,++ (2.0 μA<ΔICFTR<3.0 μA),
"NC(=O)c1sc2ccccc2c1[C@@H]1CN(S(=O)(=O)c2ccc(C(F)(F)F)cc2)CCO1 (single isomer, unassigned) [compound 042]",> 2,,+ (ΔTEEC<2000 μS)
"Cc1nc2ccc(S(=O)(=O)N3CCO[C@H](c4c(C(N)=O)sc5ccccc45)C3)cc2o1 (single isomer, unassigned) [compound 071]",< 1,+++ (ΔICFTR >3.0 μA),
"NC(=O)c1sc2ccccc2c1C1CN(S(=O)(=O)c2ccc(C(F)(F)F)cc2)CCO1 (racemic) [compound 011, rac-3-[4-[4-(trifluoromethyl)phenyl]sulfonylmorpholin-2-yl]benzothiophene-2-carboxamide]",1 to 2,+++ (ΔICFTR >3.0 μA),++ (2000 μS <ΔTEEC<3000ρS)
"Cc1cc(S(=O)(=O)N2CCOC(c3c(C(N)=O)sc4ccccc34)C2)ccc1C(F)(F)F (racemic) [compound 044, rac-3-[4-[3-methyl-4-(trifluoromethyl)phenyl]sulfonylmorpholin-2-yl]benzothiophene-2-carboxamide]",1 to 2,++ (2.0 μA<ΔICFTR<3.0 μA),
"Cc1nc2ccc(S(=O)(=O)N3CCOC(c4c(C(N)=O)sc5ccccc45)C3)cc2o1 (racemic) [compound 034, rac-3-[4-[(2-methyl-1,3-benzoxazol-6-yl)sulfonyl]morpholin-2-yl]benzothiophene-2-carboxamide]",< 1,+++ (ΔICFTR >3.0 μA),++ (2000 μS <ΔTEEC<3000ρS)
"NC(=O)c1sc2ccccc2c1[C@H]1CN(S(=O)(=O)c2ccc(C(F)(F)F)cc2)CCO1 (single isomer, unassigned) [compound 043]",< 1,,+++ (ΔTEEC>3000 μS)
"NC(=O)c1sc2ccccc2c1C1CN(S(=O)(=O)c2ccc([N+](=O)[O-])cc2)CCO1 (racemic) [compound 065, rac-3-[4-(4-nitrophenyl)sulfonylmorpholin-2-yl]benzothiophene-2-carboxamide]",> 2,,
"CNC(=O)c1sc2ccccc2c1C1CN(S(=O)(=O)c2c(C)noc2C)CCO1 (centres unmarked) [compound 075, 3-[4-(3,5-dimethyl-isoxazole-4-sulfonyl)-morpholin-2-yl]-benzo[b]thiophene-2-carboxylic acid methylamide]",> 2,,
"NC(=O)c1sc2ccccc2c1C1CN(S(=O)(=O)c2ccc(OC(F)(F)F)cc2)CCO1 (racemic) [compound 039, rac-3-[4-[4-(trifluoromethoxy)phenyl]sulfonylmorpholin-2-yl]benzothiophene-2-carboxamide]",< 1,,++ (2000 μS <ΔTEEC<3000ρS)
"NC(=O)c1sc2ccccc2c1C1CN(S(=O)(=O)c2ccc3c(c2)OCO3)CCO1 (racemic) [compound 017, rac-3-[4-(1,3-benzodioxol-5-ylsulfonyl)morpholin-2-yl]benzothiophene-2-carboxamide]",1 to 2,,

# Continued, values first:
EC50 (mutant CFTR) [µM],activity (ΔICFTR) (F508del-CFTR [1]),activity (corrector activity expressed as ΔTEEC) (F508del-CFTR [2]),Structure (SMILES)
> 2,+ (ΔICFTR<2.0 μA),++ (2000 μS <ΔTEEC<3000ρS),"Cc1cc(S(=O)(=O)N2CCOC(c3c(C(N)=O)sc4ccccc34)C2)ccc1F (racemic) [compound 001, rac-3-[4-(4-fluoro-3-methyl-benzenesulfonyl)-morpholin-2-yl]-benzo[b]thiophene-2-carboxylic acid amide]"
> 2,++ (2.0 μA<ΔICFTR<3.0 μA),,"Cc1cc(S(=O)(=O)N2CCO[C@H](c3c(C(N)=O)sc4ccccc34)C2)ccc1F (single isomer, unassigned) [compound 013]"
> 2,,,"Cc1ccc(S(=O)(=O)N2CCO[C@@H](c3c(C(N)=O)sc4ccccc34)C2)cc1F (single isomer, unassigned) [compound 072]"
> 2,,,"Cc1cc(S(=O)(=O)N2CCOC(c3c(C(=O)N(C)C)sc4ccccc34)C2)ccc1F (racemic) [compound 025, rac-3-[4-(4-fluoro-3-methyl-phenyl)sulfonylmorpholin-2-yl]-N,N-dimethyl-benzothiophene-2-carboxamide]"
> 2,,,"COc1ccc(S(=O)(=O)N2CCOC(c3c(C(N)=O)sc4ccccc34)C2)cc1C (racemic) [compound 023, rac-3-[4-(4-methoxy-3-methyl-phenyl)sulfonylmorpholin-2-yl]benzothiophene-2-carboxamide]"
